Here are results for nine compounds from patent publication US4161598A, “1-Oxygenated-2,6-methano-3-benzazocines” (Sterling Drug Inc., priority 1977, dated 1979).

Where a name gives a salt, the structure may show the parent alone. Read-outs that look alike come from different tables or passages of the source.

The test system of series [1] is morphine. The series is described as follows: morphine antagonist activity in the rat. To be noted: as the free base.
Series [2] has as its system meperidine. The series is described as follows: meperidine antagonist activity in the rat. To be noted: as the free base.
The conditions of series [3]: Ziering reference; all tests other than writhing; cited from earlier work. Background: In writhing tests, fewer writhes than in controls are read as antinociception.
Series [4] concerns acetylcholine. The series is described as follows: Anti-acetylcholine Writhing Test. It counts as in vivo, mice. The conditions noted are these: Mus musculus, 20 min. How it is done: This response has also been called writhing. Animals are pretreated with test compounds (20 minutes for both subcutaneous and oral routes) and observed for two minutes immediately following the administration of acetylcholine. Mice not responding during the two-minute observation period are scored protected while those responding one or more times are scored not protected. Test compounds are screened at doses of 75 and 25 mg./kg. subcutaneously or 150 and 50 mg./kg. orally. […] ED50 values for active compounds are estimated by probit analysis of quantal scores for 4 or more dosage levels using 15 animals per dose. Vehicle-pretreated control animals are tested concurrently with each run of 15 experimental animals.

In series [5] the test system is phenyl-p-quinone (phenylquinone). The series is described as follows: Anti-phenylquinone Writhing Test. It counts as in vivo, mice. The conditions noted are these: Mus musculus. Here is the method:
This test is used to confirm the anti-acetylcholine writhing test. The ability of compounds to prevent phenyl-p-quinone (phenylquinone)-induced writhing in mice is determined in this test. […] Animals are pretreated with test compounds (15 minutes for subcutaneous route, 30 minutes for oral route) and observed for three one-minute intervals during the 5-12 minutes following administration. Mice responsing fewer than three times during the three one-minute observation periods are scored protected while those responding three or more times are scored not protected. Test compounds are screened using 10-14 animals per treatment, usually at doses of 75-100 mg./kg. subcutaneously or 150-200 mg./kg. orally. […] ED50 values for active compounds are estimated by probit analysis of quantal scores for 3-5 dosage levels using 14-30 animals per dose. Vehicle-pretreated control animals are tested daily.

For series [6], the system named is bradykinin. The series is described as follows: Anti-bradykinin Test. It counts as in vivo, Rats. To be noted: Rattus norvegicus, 2 h. How it is done:
This is a secondary evaluation of analgesic activity. […] The threshold dose of bradykinin required for production of the response is determined for each animal, and is readministered at fixed intervals during a two-hour period following the subcutaneous or oral administration of test compounds. In the control response marked rotation of the head and flexion of the forepaw are each scored +2, for a total response score (TRS) of +4. For post-medication scoring any decrease in head rotation or paw flexion from control is each scored +1, rather than +2, while no movement of either the head or paw is each scored 0. Therefore, the TRS following any bradykinin challenge can vary from 0 to 4. Animals whose TRSs are 0-0, 0-+1 or +1-0 after any two consecutive bradykinin challenges during the two-hour post-medication period are scored protected. […] ED50 values of active compounds are estimated by probit analysis of quantal scores from 4 or more dosage levels using 5 animals per dose. In addition the average TRSs obtained at each test interval with each treatment are plotted to permit examination of time-effect relationships and to provide a rough expression of drug effect using graded data. A vehicle-pretreated control animal is tested daily. Synthetic bradykinin from Sandoz Pharmaceuticals is diluted with saline to the proper concentrations for determination of threshold doses for producing the response. All bradykinin injections are made at a constant volume of 0.2 ml. per rat.

The test system of series [7] is ethylenediaminetetraacetic acid (EDTA). The series is described as follows: EDTA Antinociceptive Test. To be noted: Cavia porcellus, sc, 0.5 h; subcutaneous; reduces response score to 6 or less. In kind it is in vivo, guinea pig. How it is done: This is also a secondary evaluation of analgesic activity. The test animal is the guinea pig. A threshold intradermal dose of ethylenediaminetetraacetic acid (EDTA) which can reproducibly elicit a cumulative response score of 12-18 discrete episodes of jumping, rearing, running, vocalization and biting or scratching at the site of injection within 40 seconds after challenge is determined for each animal. Thirty minutes after the administration of saline or test compound to 6-7 animals per dose, each animal is again challenged with its own threshold dose of EDTA. An effective drug dose is considered to be one which reduces the response score to 6 or less.

For series [8], the system named is thermal stimulus applied to the tail. The series is described as follows: Tail-flick Agonist Test. In kind it is in vivo, Rats. To be noted: for ED50: Rattus norvegicus, sc, 0.5 h; for activity as agonist: tail-flick test, result in words. Here is the method: Rats normally respond to a thermal stimulus applied to the tail by flicking their tails out from under the heat source. The intensity of the stimulus utilized is one which produces control response-times (CRT) of 2-4 seconds. Experimental response-times (ERT) are determined 30 minutes after subcutaneous injections and 60 minutes after oral medications. […] Therefore, the maximum possible increase (MPI) in response-time for any given animal is 20 minus the CRT. The average percent effect, or percent of the maximum possible increase (%MPI) obtained after any given test compound treatment is calculated by the formula [formula] […] ED50 or ED80 values of active compounds are obtained by the Miller and Tainter [Proc. Soc. Exptl.

The subject of series [9] is analgesic activity. The series is described as follows: Analgesic activity, summary of the foregoing tests in experimental animals. It counts as in vivo. To be noted: summary of the foregoing test results. How it is done: As stated above the compounds of Formula I are useful as analgesics and mostly also useful as narcotic antagonists as shown by tests in experimental animals. As presumptive tests of analgesia the anti-acetylcholine writhing, anti-phenylquinone writhing, anti-bradykinin and EDTA anti-nociceptive tests are carried out as follows: […]

Series [10] concerns morphine. The series is described as follows: Tail-flick Antagonist Test against morphine. The conditions noted are these: Rattus norvegicus.
In series [11] the test system is meperidine. The series is described as follows: Tail-flick Antagonist Test against meperidine. The conditions noted are these: Rattus norvegicus.
Series [12] relates to phenazocine. The series is described as follows: Tail-flick Antagonist Test against phenazocine. To be noted: Rattus norvegicus.
Series [13] deals with narcotics. The series is described as follows: Tail-flick Antagonist Test, narcotic not specified.
Setting [14] is: po, oral, read-out: ED50 (95% Confidence Limits), Oral.
The mark [15] stands for this setting: sc, subcutaneous, base, read-out: Subcutaneous ED50 (95% Confidence Limits).
Where [16] appears, read: sc, subcutaneous, free base or acid addition salt, read-out: ED50 (95% Confidence Limits), Subcutaneous.
The mark [17] stands for this setting: po, 0.5 h, read-out: ED50 (95% Confidence Limits), Oral.
Where [18] appears, read: sc, 0.25 h, read-out: ED50 (95% Confidence Limits), Subcutaneous.
Where [19] appears, read: po, read-out: ED50 (95% Confidence Limits), Oral.
[20] abbreviates: sc, read-out: ED50 (95% Confidence Limits), Subcutaneous.
The mark [21] stands for this setting: subcutaneous, 120 Mg./Kg. of Base.
The mark [22] stands for this setting: sc, 10 min, read-out: Subcutaneous AD50 (95% Confidence Limits) Against Meperidine.
Where [23] appears, read: summary of the foregoing test results.
Where [24] appears, read: sc, subcutaneous, form tested not given, read-out: Subcutaneous ED50 (95% Confidence Limits).
Where [25] appears, read: tail-flick antagonist test, result in words.
The mark [26] stands for this setting: subcutaneously, unit inferred, read-out: agonist ED50.

As usually defined, the minimal effective dose is the smallest amount tested that counted as effective. Low readings indicate an effect from little substance, high ones a need for much substance.

In the case of `COc1ccc2c(c1)[C@]1(C)CCN(C)[C@H](C2=O)[C@@H]1C` (relative stereo) [Compound 12], the activity against morphine entry in series [1] is “inactive”. The activity against meperidine entry in series [2] is listed as “weakly active”.
With `COc1ccc2c(c1)[C@]1(C)CCN(C)[C@@H]([C@@H]1C)[C@@]2(O)c1ccccc1` (relative stereo) [Compound 13], in series [3], the “activity in all other tests” value was “inactive”.
With `COc1ccc2c(c1)[C@]1(C)CCN(C)[C@@H]([C@@H]1C)[C@]2(C)O` (relative stereo) [Compound 14], the “activity in all other tests” value in series [3] was “inactive”.
For the compound `C[C@H]1[C@H]2C(=O)c3ccc(O)cc3[C@]1(C)CCN2CC1CC1` (relative stereo) [Example 1, 1,2,3,4,5,6-hexahydro-1-oxo-3-cyclopropylmethyl-8-hydroxy-6(eq),11(ax)-dimethyl-2,6-methano-3-benzazocine], the ED50 stood at 12 mg/kg in series [4] (setting [14]); 0.12 mg/kg in series [4] (setting [15]); 0.16 mg/kg in series [4] (setting [16]); 0.16 mg/kg in series [4] (sc, subcutaneous, hydrochloride salt, read-out: Subcutaneous ED50 (95% Confidence Limits)); 0.16 mg/kg in series [4] (sc, subcutaneous, methanesulfonate salt, read-out: Subcutaneous ED50 (95% Confidence Limits)); 15.2 mg/kg in [5] (setting [17]). The ED50 came out at 0.16 mg/kg in series [5] (setting [18]); 10 mg/kg in series [6] (setting [19]); 0.069 mg/kg in [6] (setting [20]); 91 mg/kg in series [10] (po, 20 min, read-out: AD50 (95% Confidence Limits) Against Morphine, Oral); 4.9 mg/kg in series [10] (sc, 10 min, read-out: AD50 (95% Confidence Limits) Against Morphine, Subcutaneous); 4 mg/kg in series [10] (sc, 10 min, read-out: Subcutaneous AD50 (95% Confidence Limits) Against Morphine). The ED50 in series [11] (po, 20 min, read-out: AD50 (95% Confidence Limits) Against Meperidine, Oral) was found to be 78 mg/kg; in [11] (sc, 10 min, read-out: AD50 (95% Confidence Limits) Against Meperidine, Subcutaneous), 7.2 mg/kg; in [11] (setting [22]), 2 mg/kg; in series [12] (po, 20 min, read-out: AD50 (95% Confidence Limits) Against Phenazocine, Oral), 63 mg/kg; in series [12] (sc, 10 min, read-out: AD50 (95% Confidence Limits) Against Phenazocine, Subcutaneous), 5 mg/kg; in [12] (sc, 10 min, read-out: Subcutaneous AD50 (95% Confidence Limits) Against Phenazocine) it was 4.3 mg/kg. In addition, in series [7], the minimal effective dose is 0.03 mg/kg. Also, the “Percent Inhibition of Response, Oral” value in series [8] (oral, 200 Mg./Kg. of Base) is reported as 11.2%. Besides, the dead in series [8] (oral, 200 Mg./Kg. of Base) is 1/6. In addition, the righting reflex result in series [8] (oral, 200 Mg./Kg. of Base) is “partial loss”. For the same compound, in series [8] (oral, 200 Mg./Kg. of Base), the salivation entry is listed as “slight”. For the same compound, the “Percent Inhibition of Response, Subcutaneous” value in series [8] (setting [21]) is 2.3%. Further, the “activity (observed side effect)” value in series [8] (setting [21]) was “decreased”. Also, in [8] (setting [21]), the observed side effect result was “atoxia”. The analgesic activity result in series [9] is listed as “strong analgesic activity”. Also, the narcotic antagonist activity entry in series [13] (setting [23]) is on record as “weak narcotic antagonist activity”.
Take `C=CCN1CC[C@@]2(C)c3cc(O)ccc3[C@@H](O)[C@@H]1[C@@H]2C` (relative stereo) [Example 17, 1,2,3,4,5,6-hexahydro-1(eq),8-dihydroxy-3-allyl-6(eq),11(ax)-dimethyl-2,6-methano-3-benzazocine]: the ED50 in [4] (setting [24]) is 4.8 mg/kg; in series [11] (setting [22]) it was 0.98 mg/kg.
Consider `C[C@H]1[C@H]2[C@H](O)c3ccc(O)cc3[C@]1(C)CCN2CC1CC1` (relative stereo) [Example 18, 1,2,3,4,5,6-hexahydro-1(eq),8-dihydroxy-3-cyclopropylmethyl-6(eq), 11(ax)-dimethyl-2,6-methano-3-benzazocine hydrochloride], for which the values for the ED50 in series [4] (setting [24]) and in series [11] (setting [22]) were 10 mg/kg and 11 mg/kg, respectively.
Consider `CC[C@]12CCN(CC3CC3)[C@H](C(=O)c3ccc(O)cc31)[C@@H]2C` (relative stereo) [Example 29, 1,2,3,4,5,6-hexahydro-1-oxo-3-cyclopropylmethyl-8-hydroxy-6(eq)-ethyl-11(ax)-methyl-2,6-methano-3-benzazocine], for which the ED50 in series [4] (setting [14]) is 7.6 mg/kg; in series [4] (setting [15]), 0.045 mg/kg; in [4] (setting [16]), 0.074 mg/kg; in series [5] (setting [17]), 9.1 mg/kg; in series [5] (setting [18]) it was 0.03 mg/kg; in [6] (setting [19]) it was 11 mg/kg. The ED50 came out at 0.053 mg/kg in [6] (setting [20]); 9 ± 10 mg/kg in series [8] (read-out: Tail-flick Agonist Subcutaneous ED50); 9 ± 10 mg/kg in [8] (subcutaneously, read-out: agonist ED50). In addition, the minimal effective dose in [7] is 0.025 mg/kg. The narcotic activity result in [8] (setting [23]) is listed as “no narcotic activity”. In addition, in [8], the activity as agonist entry is recorded as “active”. The analgesic activity result in series [9] is given as “strong analgesic activity”. Further, the narcotic antagonist activity result in [13] (setting [23]) was “weak narcotic antagonist activity”; in series [13] (setting [25]), “Inactive”.
With `C[C@H]1[C@H]2C(=O)c3ccc(O)cc3[C@]1(C)CCN2CCc1ccccc1` (relative stereo) [Example 34, 1,2,3,4,5,6-hexahydro-1-oxo-3-(2-phenylethyl)-8-hydroxy-6(eq),11(ax)-dimethyl-2,6-methano-3-benzazocine], the results for the ED50 in series [4] (setting [24]) and in series [8] (setting [26]) were 4.2 mg/kg and 56 ± 9.1 mg/kg, respectively. Besides, in [8], the activity as agonist result was “weakly active”. The narcotic antagonist activity result in series [13] (setting [25]) was “inactive”.
On the same counts, the results for `C[C@H]1[C@H]2C(=O)c3ccc(O)cc3[C@]1(C)CCN2CC1CCC1` (relative stereo) [Example 35B, 1,2,3,4,5,6-hexahydro-1-oxo-3-cyclobutylmethyl-8-hydroxy-6(eq),11(ax)-dimethyl-2,6-methano-3-benzazocine] are 3.9 mg/kg, 200 ± 49 mg/kg, “weakly active” and “inactive”.
